According to the supplement of paper PMC4862054:

Assays:
Details in all cases: incubation time: 72 h
BT-474 = test: drug sensitivity score (DSS), CellTiter-Glo (DSS (AUC-based score)); higher = stronger drug effect (viability inhibition or cytotoxicity); extreme values may be limits of the assay
Summary of the method: (§1)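 Plates with 384 wells held compound at 5 concentrations in 10-fold steps over a 10,000-fold range specific to each compound. Breast cancer cell lines were added in 20 µl suspension and incubated 72 h, then read for CellTox Green and CellTiter-Glo signals, with each plate normalised to 0.1 % DMSO and a positive kill control. The drug sensitivity score is based on the area under the fitted dose-response curve.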

BT-549 = test: as above
Summary of the method: as §1

CAL-148 = test: as above
Summary of the method: as §1

CAL-85-1 = test: as above
Summary of the method: as §1

DU-4475 = test: as above
Summary of the method: as §1

HCC1143 [1] = test: as above
Summary of the method: as §1

HCC1599 [2] = test: as above
Summary of the method: as §1

HCC1937 = test: as above
Summary of the method: as §1

HDQ-P1 = test: as above
Summary of the method: as §1

Hs578T = test: as above
Summary of the method: as §1

MCF-10A = test: as above
Summary of the method: as §1

MDA-MB-231 [3] = test: as above
Summary of the method: as §1

MDA-MB-436 [4] = test: as above
Summary of the method: as §1

MDA-MB-453 [5] = test: as above
Summary of the method: as §1

MDA-MB-468 [6] = test: as above
Summary of the method: as §1

MFM-223 = test: as above
Summary of the method: as §1

CAL-120 = test: normalised viability (% of control), CellTiter-Blue; higher = more viable cells (about 100 = DMSO control)
Summary of the method: (§2)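 Plates were quality-checked by Z'-factor and normalised to vehicle (100) and a positive kill control (0). The underlying assay incubated breast cancer cell lines for 72 h on 384-well plates with compound, then added 2.5 µl CellTiter-Blue for 2 h at 37 °C and read at 560/590 nm. The value is normalised viability at a single listed concentration of the series.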

HCC1143 [7] = test: as above
Summary of the method: as §2

HCC1599 [8] = test: as above
Summary of the method: as §2

MDA-MB-231 [9] = test: as above
Summary of the method: as §2

MDA-MB-436 [10] = test: as above
Summary of the method: as §2

MDA-MB-453 [11] = test: as above
Summary of the method: as §2

MDA-MB-468 [12] = test: as above
Summary of the method: as §2

SK-BR-3 = test: as above
Summary of the method: as §2

**Q.** What does the source list for `C=CCc1cccc(/C=N/NC(=O)CN2CCN(Cc3ccccc3)CC2)c1O` [PAC-1]?
**A.** drug sensitivity score (BT-474): 2.94; drug sensitivity score (BT-549): 7.1; drug sensitivity score (CAL-148): 2.16; drug sensitivity score (CAL-85-1): 3; drug sensitivity score (DU-4475): 4.02; drug sensitivity score (HCC1143 [1]): 1.38; drug sensitivity score (HCC1599 [2]): 1.71; drug sensitivity score (HCC1937): 3.44; drug sensitivity score (HDQ-P1): 1.79; drug sensitivity score (Hs578T): 0; drug sensitivity score (MCF-10A): 0; drug sensitivity score (MDA-MB-231 [3]): 2.27; drug sensitivity score (MDA-MB-436 [4]): 5.19; drug sensitivity score (MDA-MB-453 [5]): 5.01; drug sensitivity score (MDA-MB-468 [6]): 3.77; drug sensitivity score (MFM-223): 1.4

**Q.** For `C1CN1c1nc(N2CC2)nc(N2CC2)n1` [Triethylenemelamine], which normalised viability (CAL-120; 10 nM) is on record?
**A.** 112%

**Q.** What about the normalised viability (CAL-120; 1000 nM) of the same compound?
**A.** 106%

**Q.** And the normalised viability (CAL-120; 10000 nM)?
**A.** 98.7%

**Q.** What about the normalised viability (HCC1143 [7]; 10 nM) of the same compound?
**A.** 97.8%

**Q.** And the normalised viability (HCC1143 [7]; 1000 nM)?
**A.** 102%

**Q.** And the normalised viability (HCC1143 [7]; 10000 nM)?
**A.** 93.1%

**Q.** What about the normalised viability (HCC1599 [8]; 10 nM) of the same compound?
**A.** 90.9%

**Q.** And the normalised viability (HCC1599 [8]; 1000 nM)?
**A.** 92.9%

**Q.** What about the normalised viability (HCC1599 [8]; 10000 nM) of the same compound?
**A.** 83.3%

**Q.** What about the normalised viability (MDA-MB-231 [9]; 10 nM) of the same compound?
**A.** 104%

**Q.** And the normalised viability (MDA-MB-231 [9]; 1000 nM)?
**A.** 81.8%

**Q.** What about the normalised viability (MDA-MB-231 [9]; 10000 nM) of the same compound?
**A.** 78.9%

**Q.** What about the normalised viability (MDA-MB-436 [10]; 10 nM) of the same compound?
**A.** 105%

**Q.** And the normalised viability (MDA-MB-436 [10]; 1000 nM)?
**A.** 96.5%

**Q.** And the normalised viability (MDA-MB-436 [10]; 10000 nM)?
**A.** 102%

**Q.** What about the normalised viability (MDA-MB-453 [11]; 3 nM) of the same compound?
**A.** 115%

**Q.** What about the normalised viability (MDA-MB-453 [11]; 30 nM) of the same compound?
**A.** 102%

**Q.** And the normalised viability (MDA-MB-453 [11]; 100 nM)?
**A.** 122%

**Q.** What about the normalised viability (MDA-MB-468 [12]; 10 nM) of the same compound?
**A.** 112%

**Q.** What about the normalised viability (MDA-MB-468 [12]; 1000 nM) of the same compound?
**A.** 112%

**Q.** What about the normalised viability (MDA-MB-468 [12]; 10000 nM) of the same compound?
**A.** 107%

**Q.** What about the normalised viability (SK-BR-3; 10 nM) of the same compound?
**A.** 105%

**Q.** And the normalised viability (SK-BR-3; 1000 nM)?
**A.** 109%

**Q.** And the normalised viability (SK-BR-3; 10000 nM)?
**A.** 105%

**Q.** For `CC[C@H](Nc1ncnc2[nH]cnc12)c1nc2cccc(F)c2c(=O)n1-c1ccccc1` [CAL-101], which normalised viability (CAL-120; 10 nM) is on record?
**A.** 95.6%

**Q.** And the normalised viability (CAL-120; 1000 nM)?
**A.** 89.6%

**Q.** What about the normalised viability (CAL-120; 10000 nM) of the same compound?
**A.** 77.8%

**Q.** What about the normalised viability (HCC1143 [7]; 10 nM) of the same compound?
**A.** 99.4%

**Q.** And the normalised viability (HCC1143 [7]; 1000 nM)?
**A.** 96.1%

**Q.** What about the normalised viability (HCC1143 [7]; 10000 nM) of the same compound?
**A.** 76.2%

**Q.** What about the normalised viability (HCC1599 [8]; 10 nM) of the same compound?
**A.** 84.8%

**Q.** What about the normalised viability (HCC1599 [8]; 1000 nM) of the same compound?
**A.** 77.9%

**Q.** What about the normalised viability (HCC1599 [8]; 10000 nM) of the same compound?
**A.** 49.1%

**Q.** And the normalised viability (MDA-MB-231 [9]; 10 nM)?
**A.** 89.9%

**Q.** And the normalised viability (MDA-MB-231 [9]; 1000 nM)?
**A.** 92.1%

**Q.** What about the normalised viability (MDA-MB-231 [9]; 10000 nM) of the same compound?
**A.** 80.5%

**Q.** What about the normalised viability (MDA-MB-436 [10]; 10 nM) of the same compound?
**A.** 111%

**Q.** What about the normalised viability (MDA-MB-436 [10]; 1000 nM) of the same compound?
**A.** 107%

**Q.** And the normalised viability (MDA-MB-436 [10]; 10000 nM)?
**A.** 95.7%

**Q.** What about the normalised viability (MDA-MB-453 [11]; 3 nM) of the same compound?
**A.** 97.5%

**Q.** What about the normalised viability (MDA-MB-453 [11]; 30 nM) of the same compound?
**A.** 91.7%

**Q.** And the normalised viability (MDA-MB-453 [11]; 100 nM)?
**A.** 89.8%

**Q.** And the normalised viability (MDA-MB-468 [12]; 10 nM)?
**A.** 110%

**Q.** What about the normalised viability (MDA-MB-468 [12]; 1000 nM) of the same compound?
**A.** 96%

**Q.** And the normalised viability (MDA-MB-468 [12]; 10000 nM)?
**A.** 62.6%

**Q.** And the normalised viability (SK-BR-3; 10 nM)?
**A.** 101%

**Q.** And the normalised viability (SK-BR-3; 1000 nM)?
**A.** 94.7%

**Q.** And the normalised viability (SK-BR-3; 10000 nM)?
**A.** 59.1%

**Q.** For `O=C(/C=C/c1cccnc1)NCCCCC1CCN(C(=O)c2ccccc2)CC1` [FK-866], which normalised viability (CAL-120; 1 nM) is on record?
**A.** 107%

**Q.** And the normalised viability (CAL-120; 100 nM)?
**A.** 24.7%

**Q.** What about the normalised viability (CAL-120; 1000 nM) of the same compound?
**A.** 23.3%

**Q.** And the normalised viability (HCC1143 [7]; 1 nM)?
**A.** 85.6%

**Q.** What about the normalised viability (HCC1143 [7]; 100 nM) of the same compound?
**A.** 24.4%

**Q.** And the normalised viability (HCC1143 [7]; 1000 nM)?
**A.** 21.3%

**Q.** What about the normalised viability (HCC1599 [8]; 1 nM) of the same compound?
**A.** 116%

**Q.** And the normalised viability (HCC1599 [8]; 100 nM)?
**A.** 19.5%

**Q.** What about the normalised viability (HCC1599 [8]; 1000 nM) of the same compound?
**A.** 17%

**Q.** What about the normalised viability (MDA-MB-231 [9]; 1 nM) of the same compound?
**A.** 106%

**Q.** And the normalised viability (MDA-MB-231 [9]; 100 nM)?
**A.** 27.9%

**Q.** What about the normalised viability (MDA-MB-231 [9]; 1000 nM) of the same compound?
**A.** 23.2%

**Q.** And the normalised viability (MDA-MB-436 [10]; 1 nM)?
**A.** 96.2%

**Q.** What about the normalised viability (MDA-MB-436 [10]; 100 nM) of the same compound?
**A.** 23.5%

**Q.** And the normalised viability (MDA-MB-436 [10]; 1000 nM)?
**A.** 17.7%

**Q.** And the normalised viability (MDA-MB-453 [11]; 0.3 nM)?
**A.** 111%

**Q.** What about the normalised viability (MDA-MB-453 [11]; 3 nM) of the same compound?
**A.** 31.7%

**Q.** And the normalised viability (MDA-MB-453 [11]; 10 nM)?
**A.** 22.3%

**Q.** What about the normalised viability (MDA-MB-468 [12]; 1 nM) of the same compound?
**A.** 91.9%

**Q.** What about the normalised viability (MDA-MB-468 [12]; 100 nM) of the same compound?
**A.** 1.9%

**Q.** And the normalised viability (MDA-MB-468 [12]; 1000 nM)?
**A.** 1.73%

**Q.** And the normalised viability (SK-BR-3; 1 nM)?
**A.** 101%

**Q.** And the normalised viability (SK-BR-3; 100 nM)?
**A.** 100%

**Q.** What about the normalised viability (SK-BR-3; 1000 nM) of the same compound?
**A.** 111%
